Tests used:
[1] = tested on: rats (Sprague Dawley), rabbits (New-Zealand albino), monkeys (Cynomolgus); format: in vivo; conditions: intravenous, injection speeds up to 4 ml/min
Method: Male rats (Sprague Dawley): 6 to 12 animals for each dose (2×5, 2×10 and 2×20 mg/kg. The product was injected intravenously into the caudal vein.
Rabbits (New-Zealand albino rabbits): 5 animals received the dose of 5 mg/kg. The product was injected three times intravenously, once intra-arterially and once perivenously.
Monkeys (Cynomolgus, of a weight varying from 2.5 to 3.2 kg): 6 to 10 animals of each sex for each dose (1, 2, 5 and 6 mg/kg). The product was injected intravenously into the saphenous vein or into the cephalic vein, once each day during 14 days.
Monkeys (Cyonomolgus of a weight varying from 2.25 to 4.7 kg): 3 to 6 animals for each dose (2 and 5 mg/kg). The product was injected intravenously into the saphenous vein or into the cephalic vein.
The assessment of the animals was made on the basis of clinical signs, biological analyses carried out on the blood and on the urine, cardiovascular examinations and of histopathological examinations.

[2] = in vivo; cited from earlier work
[3] = tested on: mice (OF), rats (Sprague Dawley), monkeys (Cynomolgus); format: in vivo; conditions: intravenous, provided the injections were made slowly
Method: 1—Mice (OF, of a weight varying from 25 to 35 grams): 10 animals of each sex for each dose (2×25, 2×50, 2×75 and 1×100 mg/kg).The product was injected into the caudal vein.
2—Rats (Sprague Dawley, of a weight varying from 150 to 230 grams): 4 to 10 animals of each sex for each dose (from 4 to 200 mg/kg). The product was injected into the caudal vein.
3—Monkeys (Cynomolgus of a weight varying from 1.8 kg to 3.5 kg): 1 animal of each sex for each dose (8, 16 and 24 mg/kg). The product was injected into the saphenous vein or into the cephalic vein once a day during 7 days.
The assessment of the animals was made on the basis of clinical signs, biological analyses carried out on the blood and the urine and of histopathological examinations.

In the case of “Pd-bacteriopheophorbide a [Pd-Bpheide a]”, the “tolerance in toxicity studies” value [1] is given as “well tolerated”, the “cutaneous and ocular photosensitisation” value [2] is given as “no or little cutaneous photosensitisation” and the “tolerance in toxicity studies” value [3] is given as “well tolerated”.

Source: US20040147500A1, “Injectable galenic formulation for use in a diagnosis or a photodynamic therapy and method for preparing same” (priority 2001, published 2004)
